Test results from US20240199608A1 (Eli Lilly and Company, priority 2022, published 2024).

What follows are compounds tested against T1, Human AhR (Homo sapiens, UniProt P35869) (assay: hAHR Nuclear Translocation Assay). Settings: AhR-EGFP nuclear translocation in Jump-In T-REx HEK293 cells, 45 minutes incubation; class symbols; read-out: Rel EC50.
T1 construct: expressed in transfected cells
T1 sequence (P35869 11-848): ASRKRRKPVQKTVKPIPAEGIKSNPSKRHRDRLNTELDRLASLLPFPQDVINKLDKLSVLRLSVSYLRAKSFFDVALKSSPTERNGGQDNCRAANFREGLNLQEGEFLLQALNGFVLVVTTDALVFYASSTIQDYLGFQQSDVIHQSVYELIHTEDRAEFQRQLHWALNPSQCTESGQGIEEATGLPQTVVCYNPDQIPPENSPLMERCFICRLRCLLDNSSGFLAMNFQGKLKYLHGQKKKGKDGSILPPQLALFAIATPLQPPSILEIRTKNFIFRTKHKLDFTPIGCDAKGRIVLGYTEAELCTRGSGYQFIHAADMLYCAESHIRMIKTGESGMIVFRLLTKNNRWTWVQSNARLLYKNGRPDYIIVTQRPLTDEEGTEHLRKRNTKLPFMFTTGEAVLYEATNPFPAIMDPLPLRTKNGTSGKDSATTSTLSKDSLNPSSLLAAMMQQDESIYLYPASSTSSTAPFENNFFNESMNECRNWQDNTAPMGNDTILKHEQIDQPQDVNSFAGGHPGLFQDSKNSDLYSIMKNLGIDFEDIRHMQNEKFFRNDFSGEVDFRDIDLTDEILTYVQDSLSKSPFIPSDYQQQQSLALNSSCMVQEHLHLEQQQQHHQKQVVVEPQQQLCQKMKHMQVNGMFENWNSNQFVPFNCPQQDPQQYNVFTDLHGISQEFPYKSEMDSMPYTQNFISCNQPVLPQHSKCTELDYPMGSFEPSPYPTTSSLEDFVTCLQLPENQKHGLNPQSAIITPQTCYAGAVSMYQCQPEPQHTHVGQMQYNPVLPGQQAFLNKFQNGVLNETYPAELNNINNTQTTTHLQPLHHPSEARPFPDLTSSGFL
Format: cell-based
From the text: The purpose of this assay is to measure the ability of compounds to bind to, activate, and induce the translocation of AhR into the nucleus of a cell for transcription. Stable cell lines were established using Jump-InTM T-RExTM HEK293 Retargeting Kit (Life Technologies). Human AhR cDNA was cloned into the pJTI R4 CMV-TO EGFP vector. The EGFP was cloned to the C-terminal of AHR to form AhR-EGFP chimera. The pJTI R4 CMV-TO AhR-EGFP vector was transfected using FuGENE® HD into Jump-InTM T-RExTM HEK293 cells. Transfected cells were selected using 2.5 mg/ml G418 for 10 to 14 days, then expanded, harvested, and suspended in freeze media (FBS with 8% DMSO) at 2×10^7 cells/ml, and aliquots were stored in liquid nitrogen. One day before the assay date, cells were thawed and resuspended in DMEM with 5% FBS in the presence of 1 μg/ml Doxycycline and plated into ploy-L-Lysine coated […]-384 ULTRA Microplates (Perkin Elmer) at 12,000 to 15,000 cells per well and incubated at 37° C. and 5% CO2 overnight. On the assay date, compound was serially diluted (1:2) into 384-well nunc plates with DMSO using acoustic dispensing (ECHO®). The dose response was a 20-point curve. […] The culture media was damped and 25 μl of DMEM plus 0.1% BSA was added, then 25 μL of compound in DMEM plus 0.1% BSA was added into cell plates. Cells were incubated compounds at 37° C. and 5% CO2 for 45 minutes. The final DMSO concentration was 0.2%. The media was damped after 45 minutes incubation. The cells were fixed with 40 μl of cold MeOH (-20° C.) for 20 minutes. The MeOH was damped and 50 μL of DPBS containing 1 μg/mL Hochst was added into the cell plates. The intensity of EGFP was quantitated by using Opera PHENIX® or OPERETTA® high content image system (Perkin Elmer) with 20× Water Objective and five field per well. The ratio of EGFP fluorescent intensity in nuclear over cytosol was analyzed using a 4-parameter nonlinear logistic equation to determine the potency of AhR agonists.

Row | SMILES | EC50 [nM]
1 | CC1CCc2c1cc(C(=O)Nc1ccccn1)c1nncn21 (single isomer, unassigned) [Example 4] | > 50
2 | COc1ccccc1NC(=O)c1cc2c(n3cnnc13)CCC2C (single isomer, unassigned) [Example 20, N-(2-methoxyphenyl)-6-methyl-7,8-dihydro-6H-cyclopenta[e][1,2,4] triazolo[4,3-a]pyridine-4-carboxamide] | > 50
3 | COc1ccccc1NC(=O)c1cc2c(n3cnnc13)CCC2C (single isomer, unassigned) [Example 21, N-(2-methoxyphenyl)-6-methyl-7,8-dihydro-6H-cyclopenta[e][1,2,4] triazolo[4,3-a]pyridine-4-carboxamide] | > 50
4 | CC1CCc2c1cc(C(=O)Nc1nccs1)c1nncn21 (single isomer, unassigned) [Example 24, 6-Methyl-N-(thiazol-2-yl)-7,8-dihydro-6H-cyclopenta[e][1,2,4] triazolo[4,3-a]pyridine-4-carboxamide] | 1 to 10
5 | CC1CCc2c1cc(C(=O)Nc1nccs1)c1nncn21 (single isomer, unassigned) [Example 25, 6-Methyl-N-(thiazol-2-yl)-7,8-dihydro-6H-cyclopenta[e][1,2,4] triazolo[4,3-a]pyridine-4-carboxamide] | 1 to 10
6 | CC1CCc2c1cc(C(=O)Nc1ncc(C(F)(F)F)cn1)c1nncn21 (single isomer, unassigned) [Example 26, 6-Methyl-N-(5-(trifluoromethyl)pyrimidin-2-yl)-7,8-dihydro-6H-cyclopenta[e][1,2,4] triazolo[4,3-a]pyridine-4-carboxamide] | 1 to 10
7 | CC1CCc2c1cc(C(=O)Nc1ncc(C(F)(F)F)cn1)c1nncn21 (single isomer, unassigned) [Example 27, 6-Methyl-N-(5-(trifluoromethyl)pyrimidin-2-yl)-7,8-dihydro-6H-cyclopenta[e][1,2,4] triazolo[4,3-a]pyridine-4-carboxamide] | 1 to 10
8 | Cc1cnc(NC(=O)c2cc3c(n4cnnc24)CCC3C)nc1 (single isomer, unassigned) [Example 28, 6-Methyl-N-(5-methylpyrimidin-2-yl)-7,8-dihydro-6H-cyclopenta[e][1,2,4]tria zolo[4,3-a]pyridine-4-carboxamide] | 10 to 50
9 | Cc1cnc(NC(=O)c2cc3c(n4cnnc24)CCC3C)nc1 (single isomer, unassigned) [Example 29, 6-Methyl-N-(5-methylpyrimidin-2-yl)-7,8-dihydro-6H-cyclopenta[e][1,2,4]tria zolo[4,3-a]pyridine-4-carboxamide] | 10 to 50
10 | CC1CCc2c1cc(C(=O)Nc1ncco1)c1nncn21 (single isomer, unassigned) [Example 30, 6-Methyl-N-(oxazol-2-yl)-7,8-dihydro-6H-cyclopenta[e][1,2,4] triazolo[4,3-a]pyridine-4-carboxamide] | 10 to 50
11 | CC1CCc2c1cc(C(=O)Nc1ncco1)c1nncn21 (single isomer, unassigned) [Example 31, 6-Methyl-N-(oxazol-2-yl)-7,8-dihydro-6H-cyclopenta[e][1,2,4] triazolo[4,3-a]pyridine-4-carboxamide] | 10 to 50
12 | CC1CCc2c1cc(C(=O)Nc1ccon1)c1nncn21 (single isomer, unassigned) [Example 32] | 1 to 10
13 | CC1CCc2c1cc(C(=O)Nc1ccon1)c1nncn21 (single isomer, unassigned) [Example 33] | > 50
14 | CC1CCc2c1cc(C(=O)Nc1ccc(C(F)(F)F)cn1)c1nncn21 (single isomer, unassigned) [Example 34, 6-Methyl-N-(5-(trifluoromethyl)95yridine-2-yl)-7,8-dihydro-6H-cyclopenta[e][1,2,4] triazolo[4,3-a]pyridine-4-carboxamide] | 1 to 10
15 | CC1CCc2c1cc(C(=O)Nc1ccc(C(F)(F)F)cn1)c1nncn21 (single isomer, unassigned) [Example 35, 6-Methyl-N-(5-(trifluoromethyl)pyridin-2-yl)-7,8-dihydro-6H-cyclopenta[e][1,2,4] triazolo[4,3-a]pyridine-4-carboxamide] | 1 to 10
16 | CC1CCc2c1cc(C(=O)Nc1ncccc1F)c1nncn21 (single isomer, unassigned) [Example 36, N-(3-Fluoropyridin-2-yl)-6-methyl-7,8-dihydro-6H-cyclopenta[e][1,2,4] triazolo[4,3-a]pyridine-4-carboxamide] | 1 to 10
17 | CC1CCc2c1cc(C(=O)Nc1ncccc1F)c1nncn21 (single isomer, unassigned) [Example 37, N-(3-Fluoropyridin-2-yl)-6-methyl-7,8-dihydro-6H-cyclopenta[e][1,2,4] triazolo[4,3-a]pyridine-4-carboxamide] | 1 to 10

Same assay, conditions: AhR-EGFP nuclear translocation in Jump-In T-REx HEK293 cells, 45 minutes incubation; numeric values; read-out: Rel EC50

Row | SMILES | EC50 [nM]
18 | CC1CCc2c1cc(C(=O)Nc1ccccn1)c1nncn21 (single isomer, unassigned) [Example 3] | 5.37
19 | CC1CCc2c1cc(C(=O)Nc1ncccn1)c1nncn21 (single isomer, unassigned) [Example 7, 6-Methyl-N-(pyrimidin-2-yl)-7,8-dihydro-6H-cyclopenta[e][1,2,4] triazolo[4,3-a]pyridine-4-carboxamide] | 11.1
20 | C[C@H]1CCc2c1cc(C(=O)Nc1ncccn1)c1nncn21 (single isomer, unassigned) [Example 8, 6-Methyl-N-(pyrimidin-2-yl)-7,8-dihydro-6H-cyclopenta[e][1,2,4]triazolo [4,3-a]pyridine-4-carboxamide] | 25.3
21 | CC1CCc2c1cc(C(=O)Nc1ccccn1)c1nccn21 (single isomer, unassigned) [Example 9, 6-Methyl-N-(pyridin-2-yl)-7,8-dihydro-6H-cyclopenta[e]imidazo[1,2-a]pyridine-4-carboxamide] | 3.37
22 | C[C@H]1CCc2c1cc(C(=O)Nc1ccccn1)c1nccn21 (single isomer, unassigned) [Example 10, 6-Methyl-N-(pyridin-2-yl)-7,8-dihydro-6H-cyclopenta[e]imidazo[1,2-a]pyridine-4-carboxamide] | 1.32
23 | CC1CCc2c1cc(C(=O)Nc1ncccn1)c1nccn21 (single isomer, unassigned) [Example 11, 6-Methyl-N-(pyrimidin-2-yl)-7,8-dihydro-6H-cyclopenta[e]imidazo[1,2-a]pyridine-4-carboxamide] | 1.58
24 | C[C@H]1CCc2c1cc(C(=O)Nc1ncccn1)c1nccn21 (single isomer, unassigned) [Example 12, 6-Methyl-N-(pyrimidin-2-yl)-7,8-dihydro-6H-cyclopenta[e]imidazo[1,2-a]pyridine-4-carboxamide] | 9.8
25 | CC1CCc2c1cc(C(=O)Nc1ncc(F)cn1)c1nccn21 (single isomer, unassigned) [Example 13, N-(5-Fluoropyrimidin-2-yl)-6-methyl-7,8-dihydro-6H-cyclopenta[e]imidazo[1,2-a]pyridine-4-carboxamide] | 0.495
26 | C[C@H]1CCc2c1cc(C(=O)Nc1ncc(F)cn1)c1nccn21 (single isomer, unassigned) [Example 14, N-(5-Fluoropyrimidin-2-yl)-6-methyl-7,8-dihydro-6H-cyclopenta[e]imidazo[1,2-a]pyridine-4-carboxamide] | 1.66
